Data published in paper PMC12472586, “Leveraging Natural Compounds for Pancreatic Lipase Inhibition via Virtual Screening” (Pharmaceuticals, 2025).
Read-outs that look alike come from different tables or passages of the source.

Target: T1, porcine pancreatic lipase (triacylglycerol acyl hydrolase; EC 3.1.1.3) (Sus scrofa, UniProt P00591)
T1 sequence (P00591 1-450): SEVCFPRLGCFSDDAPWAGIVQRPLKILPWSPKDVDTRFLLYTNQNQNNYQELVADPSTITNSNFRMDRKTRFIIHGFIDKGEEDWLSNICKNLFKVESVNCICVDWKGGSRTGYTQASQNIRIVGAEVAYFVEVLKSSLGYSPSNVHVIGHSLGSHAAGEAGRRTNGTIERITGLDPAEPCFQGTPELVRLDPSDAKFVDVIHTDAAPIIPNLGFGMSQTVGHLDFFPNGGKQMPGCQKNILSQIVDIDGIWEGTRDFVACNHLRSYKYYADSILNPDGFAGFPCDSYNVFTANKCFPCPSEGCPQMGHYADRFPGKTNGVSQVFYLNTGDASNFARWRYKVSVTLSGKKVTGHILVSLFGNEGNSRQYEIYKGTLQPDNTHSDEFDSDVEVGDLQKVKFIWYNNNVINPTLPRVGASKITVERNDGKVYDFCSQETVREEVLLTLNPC
Assay: In vitro pancreatic lipase inhibition, 4-nitrophenyl butyrate substrate
Assay type: biochemical
Details: means ± SD (n = 3), PBS pH 7.2, 37 °C, OD 405 nm
Procedure: The inhibition of PL was evaluated using a previously reported method.
The inhibition studies of porcine pancreatic lipase (triacylglycerol acyl hydrolase; EC 3.1.1.3) were performed employing 4-nitrophenyl butyrate as a substrate. The compounds were dissolved in MeOH at concentrations from 0.22 mM to 2.7 mM. […] Then, the substrate solution was added (10 μL of 3.2 mM in H2O:DMF, 70:30), and the plate was incubated and shaken for 30 min at 37 °C. The optical density values (OD) were acquired at 405 nm with a Synergy H1 microplate reader (BioTek, Bad Friedrichshall, Germany). The experiments were performed in triplicate, and the %inhibition was determined by the following equation:(1) %inhibition=ODcontrol−ODsample/ODcontrol× 100% where ODcontrol refers to the enzyme–substrate mixture, while ODsample corresponds to the enzyme–substrate mixture in the presence of the inhibitor.
OriginPro 2023 software (OriginLab Corp., Northampton, MA, USA) was adopted for statistical analysis. The regression coefficients were determined based on the analysis of variance (one-way ANOVA, significance level 0.01). A p-value < 0.01 was set as the threshold for significance for Tukey’s test.

IC50 (read-out: IC50) [µM] | IC50 | Compound
84.5 ± 1.5 | – | C/C(=C\COc1c2ccoc2cc2oc(=O)ccc12)CCC(O)C(C)(C)O (centres unmarked) [Dihydroxybergamottin]
13.2 ± 0.6 | low micromolar range | Oc1ccc(/C=C/c2cc(O)cc3c2[C@@H](c2cc(O)cc(O)c2)[C@H](c2ccc(O)cc2)O3)cc1 [ε-Viniferin, Ɛ-Viniferin]
12.3 ± 1.2 | low micromolar range | COc1cc([C@H]2c3cc(O)c(OC)cc3C[C@@H](CO)[C@@H]2CO)ccc1O [Isolariciresinol]
